Key:
3T3-L1 [1] = experiment: compound was evaluated for their acute effects in vitro by measuring 2-Deoxyglucose (2DG) uptake in vehicle treated 3T3-L1 adipocytes at concentration of 3 micro M; assay type: functional
Mus musculus [2] = experiment: In vivo hypoglycemic activity expressed as glucose lowering relative to positive control in 6-8 week old C57BL/6J ob/ob mouse at 1 mg/kg.; assay type: functional
3T3-L1 [3] = experiment: compound was evaluated for their acute effects in vitro by measuring 2-Deoxyglucose (2DG) uptake in vehicle treated 3T3-L1 adipocytes at concentration of 10 micro M; assay type: functional
Mus musculus [4] = experiment: compound was tested in vivo for hypoglycemic activity expressed as Glucose lowering relative to positive control in 6-8 week old C57BL/6J ob/ob mouse at 0.1 mg/kg; assay type: functional
3T3-L1 [5] = experiment: compound was evaluated for their acute effects in vitro by measuring 2-Deoxyglucose (2DG) uptake in vehicle treated 3T3-L1 adipocytes at concentration of 30 micro M; assay type: functional
Mus musculus [6] = experiment: In vivo hypoglycemic activity expressed as glucose lowering relative to positive control in 6-8 week old C57BL/6J ob/ob mouse at 10 mg/kg; assay type: functional
Mus musculus [7] = experiment: compound was tested in vivo for hypoglycemic activity expressed as Glucose lowering relative to positive control in 6-8 week old C57BL/6J ob/ob mouse at 0.5 mg/kg; assay type: functional
Mus musculus [8] = experiment: In vivo hypoglycemic activity expressed as glucose lowering relative to positive control in 6-8 week old C57BL/6J ob/ob mouse at 5 mg/kg.; assay type: functional
Rattus norvegicus [9] = species on record: Rattus norvegicus; experiment: Inhibition of gluconeogenesis in rat; assay type: functional; details: Rattus norvegicus; read-out: ED50
3T3-L1 [10] = experiment: In vitro measurements 2-Deoxyglucose (2DG) uptake in vehicle treated 3T3-L1 adipocytes at 100 uM dose.; assay type: functional
Mus musculus [11] = experiment: compound was tested in vivo for hypoglycemic activity expressed as Glucose lowering relative to positive control in 6-8 week old C57BL/6J ob/ob mouse; assay type: functional
Mus musculus [12] = experiment: compound was tested in vivo for hypoglycemic activity in 6-8 week old C57BL/6J ob/ob mouse; assay type: functional
Mus musculus [13] = experiment: compound was tested in vivo for hypoglycemic activity expressed as Glucose lowering relative to positive control in 6-8 week old C57BL/6J ob/ob mouse at 10 uM dose.; assay type: functional
Mus musculus [14] = experiment: compound was tested in vivo for hypoglycemic activity expressed as Glucose lowering relative to positive control in 6-8 week old C57BL/6J ob/ob mouse at 1 uM dose.; assay type: functional
Mus musculus [15] = experiment: compound was tested in vivo for hypoglycemic activity expressed as Glucose lowering relative to positive control in 6-8 week old C57BL/6J ob/ob mouse at 5 uM dose.; assay type: functional
Mus musculus [16] = experiment: compound was tested in vivo for hypoglycemic activity in 6-8 week old C57BL/6J ob/ob mouse at 10 mg/kg; assay type: functional
3T3-L1 [17] = experiment: compound was evaluated for their acute effects in vitro by measuring 2-Deoxyglucose (2DG) uptake in vehicle treated 3T3-L1 adipocytes at 60 uM dose.; assay type: functional
Mus musculus [18] = experiment: compound was tested in vivo for hypoglycemic activity in 6-8 week old C57BL/6J ob/ob mouse at 50 mg/kg; assay type: functional
Rattus norvegicus [19] = species on record: Rattus norvegicus; experiment: Compound was tested for inhibition of gluconeogenesis; assay type: functional; details: Rattus norvegicus; read-out: ED50
Mus musculus [20] = experiment: compound was tested in vivo for hypoglycemic activity expressed as Glucose lowering relative to positive control in 6-8 week old C57BL/6J ob/ob mouse at 50 mg/kg; assay type: functional
3T3-L1 [21] = experiment: compound was evaluated for their acute effects in vitro by measuring 2-Deoxyglucose (2DG) uptake in vehicle treated 3T3-L1 adipocytes at 10 uM dose.; assay type: functional
L6 [22] = experiment: compound was evaluated for their acute effects in vitro by measuring 2-Deoxyglucose (2DG) uptake in vehicle treated L6 […] at 60 uM dose.; assay type: functional
Mus musculus [23] = experiment: compound was tested in vivo for hypoglycemic activity expressed as Glucose lowering relative to positive control in 6-8 week old C57BL/6J ob/ob mouse at 5 mg/kg; assay type: functional
Mus musculus [24] = experiment: Compound was tested in vivo for hypoglycemic activity expressed as Glucose lowering relative to positive control in 6-8 week old C57BL/6J ob/ob mouse at 50 mg/kg; assay type: functional
Rattus norvegicus [25] = species on record: Rattus norvegicus; experiment: Percentage inhibition of basal stimulated Gluconeogenesis in Isolated Rat Hepatocytes in vitro; assay type: functional, Hepatocyte
Rattus norvegicus [26] = species on record: Rattus norvegicus; experiment: Percentage inhibition of Glucagon- stimulated Gluconeogenesis in Isolated Rat Hepatocytes in vitro; assay type: functional, Hepatocyte
3T3-L1 [27] = experiment: Acute effects in vitro by measuring 2-deoxyglucose (2DG) uptake in vehicle treated 3T3-L1 adipocytes at 10 uM dose.; assay type: functional
3T3-L1 [28] = experiment: In vitro by measurements of 2-Deoxyglucose (2DG) uptake in vehicle treated 3T3-L1 adipocytes at 3 uM dose.; assay type: functional
Mus musculus [29] = experiment: compound was tested in vivo for hypoglycemic activity expressed as Glucose lowering relative to positive control in 6-8 week old C57BL/6J ob/ob mouse at 25 mg/kg; assay type: functional
L6 [30] = experiment: compound was evaluated for their acute effects in vitro by measuring 2-Deoxyglucose (2DG) uptake in vehicle treated L6 […] at 100 uM dose.; assay type: functional
3T3-L1 [31] = experiment: Acute effects in vitro by measuring 2-deoxyglucose (2DG) uptake in vehicle treated 3T3-L1 adipocytes at 30 uM dose.; assay type: functional
L6 [32] = experiment: compound was evaluated for their acute effects in vitro by measuring 2-Deoxyglucose (2DG) uptake in vehicle treated L6 […] at 30 uM dose.; assay type: functional

CCc1cccc(CC(C)(Oc2ccc(Cc3ccccc3)cc2)C(=O)[O-])c1.[Na+] (centres undefined)
Basal uptake (3T3-L1 [1]): 128% | Hypoglycemic activity (Mus musculus [2]): 87% | Basal uptake (3T3-L1 [3]): 179% | Hypoglycemic activity (Mus musculus [4]): 73% | Basal uptake (3T3-L1 [5]): 265% | Hypoglycemic activity (Mus musculus [6]): 101% | Hypoglycemic activity (Mus musculus [7]): 52% | Hypoglycemic activity (Mus musculus [8]): 102% | ED50 (Rattus norvegicus [9]): 0.1 mg/kg

Cc1ccc(CC(Oc2ccc(C(C)C)cc2)C(=O)O)cc1 (centres undefined)
Basal uptake (3T3-L1 [10]): 147% | Hypoglycemic activity (Mus musculus [11]): 113% | Glucose lowering ob/ob dose (Mus musculus [12]): 50 mg/kg | ED50 (Rattus norvegicus [9]): < 50 mg/kg

CC(C)c1ccc(OC(C)(Cc2cccc(Cl)c2)C(=O)[O-])cc1.[Na+] (centres undefined)
Hypoglycemic activity (Mus musculus [13]): 101% | Hypoglycemic activity (Mus musculus [14]): 47% | Hypoglycemic activity (Mus musculus [15]): 32% | ED50 (Rattus norvegicus [9]): 5 mg/kg

CC(C)c1ccc(SC(Cc2ccc(Cl)cc2)C(=O)O)cc1 (centres undefined)
Hypoglycemic activity (Mus musculus [16]): 0% | Basal uptake (3T3-L1 [17]): 102% | Hypoglycemic activity (Mus musculus [18]): 90% | ED50 (Rattus norvegicus [19]): 10 mg/kg

CC(C)c1ccc(OC(CCCCCc2ccc(Cl)cc2)C(=O)[O-])cc1.[Na+] (centres undefined)
Hypoglycemic activity (Mus musculus [20]): 200% | Basal uptake (3T3-L1 [21]): 180% | Hypoglycemic activity (Mus musculus [6]): 32% | Basal uptake (L6 [22]): 44% | Hypoglycemic activity (Mus musculus [23]): 35% | ED50 (Rattus norvegicus [9]): 10 mg/kg

CC(C)c1ccc(OC(Cc2ccc(C(F)(F)F)cc2)C(=O)O)cc1 (centres undefined)
Hypoglycemic activity (Mus musculus [24]): 74% | Hypoglycemic activity (Mus musculus [6]): 42% | Basal uptake (3T3-L1 [10]): 605% | Basal uptake (L6 [22]): 104% | Hypoglycemic activity (Mus musculus [8]): 30% | ED50 (Rattus norvegicus [9]): 10 mg/kg

CC(C)c1ccc(OC(Cc2ccccc2)C(=O)O)cc1 (centres undefined)
Inhibition (Rattus norvegicus [25]): 41% | Hypoglycemic activity (Mus musculus [20]): 50% | Basal uptake (3T3-L1 [10]): 79% | Inhibition (Rattus norvegicus [26]): 25% | ED50 (Rattus norvegicus [9]): 50 mg/kg

Cc1ccc(S(=O)(=O)C(CCCCCc2ccc(Cl)cc2)C(=O)O)cc1 (centres undefined)
Basal uptake (3T3-L1 [27]): 93% | Hypoglycemic activity (Mus musculus [20]): 71% | Hypoglycemic activity (Mus musculus [6]): 22% | Basal uptake (3T3-L1 [10]): 250% | Basal uptake (3T3-L1 [28]): 114% | Hypoglycemic activity (Mus musculus [29]): 60% | Basal uptake (L6 [22]): 124% | Basal uptake (L6 [30]): 134% | Basal uptake (3T3-L1 [31]): 100% | ED50 (Rattus norvegicus [9]): 25 mg/kg | Basal uptake (L6 [32]): 88%
